Data from PubChem BioAssay AID743486 (Broad Institute, 2014).
Calls of active or inactive are those of the source. How the calls were made is not given here.

system: Mycobacterium tuberculosis starved, CFU imaging; assay: M. tuberculosis CFU reduction, CFU imaging, dry powder, dose response (AID 743486)

SMILES | AC90
Cn1c(NC(=O)c2ccccc2)nc2c3nccnc3ccc21 | > 64 µM (inactive)
Cn1c(NC(=O)c2ccccc2)nc2c3ncccc3ccc21 | > 64 µM (inactive)
Cn1c(NC(=O)c2ccccc2)nc2c3cnccc3ccc21 | < 32 µM
Cn1c(NC(=O)c2ccccc2)nc2c3ccncc3ccc21 | < 64 µM
